Measured values reported in patent publication US6620813B1, “Hydroxamate derivatives of non-steroidal anti-inflammatory drugs” (Medinox, Inc., priority 2002, dated 2003).
Entries after “also recorded” stand apart in the source; their conditions may differ.

Columns and labels:
Male Sprague-Dawley rats [1] = test: Enteropathy model: intestinal erosions and ulcers after oral dosing; conditions: diclofenac vs equimolar compound 54, vehicle PEG, FIG. 1
Method: Enteropathy: Male Sprague-Dawley rats (150-174 g) were obtained from Harlan. Animals were allowed to acclimatize to the facility for a minimum of 3 days and provided with food and water ad libitium. […] Drugs were administered orally either as a single dose (late morning) or twice daily between 8:00-10:00 and 4:00-5:00 beginning with a morning dose for a total of three days. Groups contained 6-8 animals per treatment. On the fourth day each rat was injected intravenously with 1 ml of a 10 mg/ml solution of Evan's Blue to stain the damaged blood vessels in intestinal erosions and ulcers. Animals were sacrificed 10 to 20 minutes after administration of Evan's Blue. The small intestine was then removed from each rat and placed in a large weigh boat in cold PBS, stored briefly in a refrigerator until boats were re-coded to blind the observer. Each intestinal segment was then opened longitudinally and, using a fiber optic light, scored for erosions and ulceration according to the following criteria:
After Evan's Blue injection, intestinal lesions are seen as shallow lesions that are moderately stained around the edge, but with little to no staining in the middle. The depth of an erosion is sometimes only detectable when the edge of the tissue is lifted to reflect light at a different angle. Erosions are usually small and round or oval, but are sometimes as much as 1-2 mm wide, and as long as 1-2 cm, running along the area of mesenteric attachment. When erosions are elongated, the length is measured in mm and divided by 2; otherwise, the erosions are merely counted individually. Note that some areas of intestinal tissue stain blue, but are not erosions. These tend to be near the mesenteric membrane attachment sites and may represent areas of increased permeability that have not progressed to the extent that cell loss has occurred.
Ulcers: An ulcer is a deep lesion penetrating the muscularis mucosa. It is usually thickened and inflamed. After Evan's Blue injection, ulcers present several different types of appearance. […] All ulcers are quantified by measuring their long dimensions in mm.

Male Lewis rats = test: Adjuvant-induced arthritis: paw volume; format: in vivo, rat; conditions: oral daily on days 8-15, day 15, equimolar doses, FIG. 3
Male Sprague-Dawley rats [2] = test: Gastropathy model: total gastric lesions after a single oral dose; format: in vivo, rat
Method: Rats were fasted for 18 hours prior to the study. […] Drugs were administered orally as a single dose in the morning and water removed. Two and one-half hours after dosing, rats were injected with 1 ml of 10 mg/ml Evans Blue solution and sacrificed 30 minutes later. Stomachs were removed, placed in weigh boats containing cold PBS, and re-coded with letters to blind the observer. Stomachs were then opened along the greater curvature, any contents removed and then placed flat with the lumen facing up to score blue-stained lesions for gastric toxicity according to the following criteria: First, the number of small rounded lesions were counted followed by measurement of total length of linear lesions of greater than or equal to 2 mm. The two numbers obtained (round lesion number and linear length) were added together to give a total gastropathy score expressed as Total Gastric Lesions.

less gastric lesion (total length) than an equimolar dose of diclofenac (Male Sprague-Dawley rats [2]; rats, oral single dose, relative to equimolar diclofenac, FIG. 2)	SMILES	total length of intestinal ulcers (ulcerogenic effect / ulcer formation) (Male Sprague-Dawley rats [1])	inhibition of paw volume increase in the uninjected feet (anti-inflammatory activity) (Male Lewis rats)	gastric lesion formation compared with Diclofenac (Male Sprague-Dawley rats [2]; rat model of gastropathy, equivalent doses)
	O=C(O)Cc1ccccc1Nc1c(Cl)cccc1Cl [Diclofenac, diclofenac, reference compound]	substantial ulceration		
73%	Cc1csc(=S)n1OC(=O)Cc1ccccc1Nc1c(Cl)cccc1Cl [Compound 54]	significantly less; also recorded: no ulcerogenic effect	equivalent efficacy to equimolar doses of Diclofenac	significantly less gastric lesion formation
